Data: patent US10173991B2, “Sulfone amide linked benzothiazole inhibitors of endothelial lipase” (BRISTOL-MYERS SQUIBB COMPANY, priority 2014, dated 2019)

Biological target: Endothelial lipase (EL) (Homo sapiens (Human), UniProt Q9Y5X9)
Assay: Endothelial lipase (EL) enzymatic assay with fluorescent substrate A10070 in DMPG vesicles
Assay type: biochemical
Summary of the method: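 Substrate A10070 sits in sonicated DMPG vesicles at 0.11 mole fraction. Lipase and compound preincubated 30 min, 37° C, in HEPES pH 8.0 buffer with CaCl2.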

Chain of Endothelial lipase (EL) (Q9Y5X9 21-500): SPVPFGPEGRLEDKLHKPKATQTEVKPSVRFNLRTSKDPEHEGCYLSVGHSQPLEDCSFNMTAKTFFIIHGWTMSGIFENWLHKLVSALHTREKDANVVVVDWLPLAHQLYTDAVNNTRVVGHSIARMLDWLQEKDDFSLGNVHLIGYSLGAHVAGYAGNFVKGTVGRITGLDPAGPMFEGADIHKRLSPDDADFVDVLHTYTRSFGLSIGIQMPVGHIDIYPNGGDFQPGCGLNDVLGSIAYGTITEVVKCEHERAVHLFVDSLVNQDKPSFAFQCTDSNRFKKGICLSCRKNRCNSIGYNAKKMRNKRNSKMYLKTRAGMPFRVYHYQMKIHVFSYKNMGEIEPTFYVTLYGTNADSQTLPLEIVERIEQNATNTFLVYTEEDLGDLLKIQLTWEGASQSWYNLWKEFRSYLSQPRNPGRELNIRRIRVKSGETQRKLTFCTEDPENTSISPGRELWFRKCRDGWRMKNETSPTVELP

IC50 [nM]	SMILES
13	COCCS(=O)(=O)C(C(=O)NCC(=O)NC1CC1)c1nc2cc(F)c(-c3ccc(NC(=O)OCc4nccs4)cc3)cc2s1 (centres unmarked) [Example 524, 1,3-thiazol-2-ylmethyl N-{4-[2-({[(cyclopropyl-carbamoyl)methyl]carbamoyl}(2-methoxyethane-sulfonyl)methyl)-5-fluoro-1,3-benzothiazol-6-yl]phenyl} carbamate]
12	COC(C)(C)CNC(=O)c1ccc(-c2ccc3nc(C(C(=O)NCC(=O)NC4CC4)S(C)(=O)=O)sc3c2)cc1 (centres unmarked) [Example 571, 4-[2-({[(cyclopropyl-carbamoyl)methyl]carbamoyl} (methanesulfonyl)methyl)-1,3-benzothiazol-6-yl]-N-(2-methoxy-2-methylpropyl) benzamide]
